This is an account of results in ChEMBL document CHEMBL1201862, “PubChem BioAssay data set” (2004).

Structures are written as SMILES. Calls of active or inactive are those of the source.

Data set [1] concerns the target Peroxisome proliferator-activated receptor gamma/Nuclear receptor coactivator 2 (Homo sapiens, UniProt P37231). It is filed as functional.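 Also: agonist potency for raising coactivator recruitment to the receptor.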
The target of data set [2] is Peroxisome proliferator-activated receptor gamma/Nuclear receptor coactivator 3 (Homo sapiens, UniProt P37231). It is filed as functional.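 Also: agonist potency for raising coactivator recruitment to the receptor.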
Sequence of Peroxisome proliferator-activated receptor gamma/Nuclear receptor coactivator 3 (P37231 whole entry): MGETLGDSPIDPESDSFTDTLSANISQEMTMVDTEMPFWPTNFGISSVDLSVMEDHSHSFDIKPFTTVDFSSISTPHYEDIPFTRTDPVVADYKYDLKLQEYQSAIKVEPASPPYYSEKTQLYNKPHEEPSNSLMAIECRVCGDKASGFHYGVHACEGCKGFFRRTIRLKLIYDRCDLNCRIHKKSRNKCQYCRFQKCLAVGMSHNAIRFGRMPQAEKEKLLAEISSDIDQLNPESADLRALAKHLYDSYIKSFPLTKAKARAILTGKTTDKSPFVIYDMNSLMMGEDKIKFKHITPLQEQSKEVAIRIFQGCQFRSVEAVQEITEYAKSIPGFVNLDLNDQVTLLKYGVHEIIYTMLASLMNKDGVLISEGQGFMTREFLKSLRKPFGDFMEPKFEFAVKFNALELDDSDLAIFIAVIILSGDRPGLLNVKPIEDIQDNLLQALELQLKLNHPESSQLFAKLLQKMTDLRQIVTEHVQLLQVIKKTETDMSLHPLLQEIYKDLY
Sequence of Peroxisome proliferator-activated receptor gamma/Nuclear receptor coactivator 3 (Q9Y6Q9 whole entry, further chain): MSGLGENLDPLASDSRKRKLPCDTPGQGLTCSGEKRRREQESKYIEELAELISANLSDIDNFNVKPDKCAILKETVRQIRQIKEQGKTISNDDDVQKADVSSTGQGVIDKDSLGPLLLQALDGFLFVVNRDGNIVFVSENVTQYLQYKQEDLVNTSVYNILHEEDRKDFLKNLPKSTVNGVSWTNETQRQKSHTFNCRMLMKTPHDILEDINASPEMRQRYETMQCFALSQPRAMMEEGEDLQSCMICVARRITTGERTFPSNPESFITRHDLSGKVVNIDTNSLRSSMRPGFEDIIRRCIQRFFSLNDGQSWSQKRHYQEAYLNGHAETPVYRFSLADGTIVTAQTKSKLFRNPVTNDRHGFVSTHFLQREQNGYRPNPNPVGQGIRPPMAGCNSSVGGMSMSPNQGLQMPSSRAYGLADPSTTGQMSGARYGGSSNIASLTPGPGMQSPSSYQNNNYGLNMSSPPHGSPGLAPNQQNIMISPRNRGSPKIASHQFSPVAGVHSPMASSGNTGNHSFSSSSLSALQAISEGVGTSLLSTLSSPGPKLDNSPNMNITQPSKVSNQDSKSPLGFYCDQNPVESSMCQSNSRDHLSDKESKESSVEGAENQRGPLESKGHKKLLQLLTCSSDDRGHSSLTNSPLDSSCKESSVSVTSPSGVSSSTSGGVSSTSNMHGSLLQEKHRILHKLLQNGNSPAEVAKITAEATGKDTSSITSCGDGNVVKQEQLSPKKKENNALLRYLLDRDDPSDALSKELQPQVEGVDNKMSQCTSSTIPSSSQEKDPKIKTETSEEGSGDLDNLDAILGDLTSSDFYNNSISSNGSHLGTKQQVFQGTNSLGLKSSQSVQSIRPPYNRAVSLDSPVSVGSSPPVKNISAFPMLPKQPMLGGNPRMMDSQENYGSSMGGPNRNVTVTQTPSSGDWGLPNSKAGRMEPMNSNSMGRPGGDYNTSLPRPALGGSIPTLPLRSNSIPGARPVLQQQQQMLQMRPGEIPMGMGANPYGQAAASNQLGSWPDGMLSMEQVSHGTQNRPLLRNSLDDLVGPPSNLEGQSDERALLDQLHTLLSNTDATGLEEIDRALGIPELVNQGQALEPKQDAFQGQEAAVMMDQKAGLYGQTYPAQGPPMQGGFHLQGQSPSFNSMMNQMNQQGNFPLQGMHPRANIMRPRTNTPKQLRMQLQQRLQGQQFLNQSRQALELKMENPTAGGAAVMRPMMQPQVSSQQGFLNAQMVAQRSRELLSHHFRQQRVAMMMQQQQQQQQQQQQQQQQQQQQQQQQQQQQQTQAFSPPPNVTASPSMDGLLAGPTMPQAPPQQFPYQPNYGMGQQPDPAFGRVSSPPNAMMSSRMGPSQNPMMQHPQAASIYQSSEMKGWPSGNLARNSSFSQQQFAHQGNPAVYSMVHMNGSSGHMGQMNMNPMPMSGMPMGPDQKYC
The target in data set [3] is Peroxisome proliferator-activated receptor gamma/Nuclear receptor coactivator 1 (Homo sapiens, UniProt P37231). Type of data set: functional.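 Also: agonist potency as compounds enhance coactivator SRC-1 recruitment to PPARgamma.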
Sequence of Peroxisome proliferator-activated receptor gamma/Nuclear receptor coactivator 1 (P37231 whole entry): as the sequence (P37231 whole entry) above
Sequence of Peroxisome proliferator-activated receptor gamma/Nuclear receptor coactivator 1 (Q15788 whole entry, further chain): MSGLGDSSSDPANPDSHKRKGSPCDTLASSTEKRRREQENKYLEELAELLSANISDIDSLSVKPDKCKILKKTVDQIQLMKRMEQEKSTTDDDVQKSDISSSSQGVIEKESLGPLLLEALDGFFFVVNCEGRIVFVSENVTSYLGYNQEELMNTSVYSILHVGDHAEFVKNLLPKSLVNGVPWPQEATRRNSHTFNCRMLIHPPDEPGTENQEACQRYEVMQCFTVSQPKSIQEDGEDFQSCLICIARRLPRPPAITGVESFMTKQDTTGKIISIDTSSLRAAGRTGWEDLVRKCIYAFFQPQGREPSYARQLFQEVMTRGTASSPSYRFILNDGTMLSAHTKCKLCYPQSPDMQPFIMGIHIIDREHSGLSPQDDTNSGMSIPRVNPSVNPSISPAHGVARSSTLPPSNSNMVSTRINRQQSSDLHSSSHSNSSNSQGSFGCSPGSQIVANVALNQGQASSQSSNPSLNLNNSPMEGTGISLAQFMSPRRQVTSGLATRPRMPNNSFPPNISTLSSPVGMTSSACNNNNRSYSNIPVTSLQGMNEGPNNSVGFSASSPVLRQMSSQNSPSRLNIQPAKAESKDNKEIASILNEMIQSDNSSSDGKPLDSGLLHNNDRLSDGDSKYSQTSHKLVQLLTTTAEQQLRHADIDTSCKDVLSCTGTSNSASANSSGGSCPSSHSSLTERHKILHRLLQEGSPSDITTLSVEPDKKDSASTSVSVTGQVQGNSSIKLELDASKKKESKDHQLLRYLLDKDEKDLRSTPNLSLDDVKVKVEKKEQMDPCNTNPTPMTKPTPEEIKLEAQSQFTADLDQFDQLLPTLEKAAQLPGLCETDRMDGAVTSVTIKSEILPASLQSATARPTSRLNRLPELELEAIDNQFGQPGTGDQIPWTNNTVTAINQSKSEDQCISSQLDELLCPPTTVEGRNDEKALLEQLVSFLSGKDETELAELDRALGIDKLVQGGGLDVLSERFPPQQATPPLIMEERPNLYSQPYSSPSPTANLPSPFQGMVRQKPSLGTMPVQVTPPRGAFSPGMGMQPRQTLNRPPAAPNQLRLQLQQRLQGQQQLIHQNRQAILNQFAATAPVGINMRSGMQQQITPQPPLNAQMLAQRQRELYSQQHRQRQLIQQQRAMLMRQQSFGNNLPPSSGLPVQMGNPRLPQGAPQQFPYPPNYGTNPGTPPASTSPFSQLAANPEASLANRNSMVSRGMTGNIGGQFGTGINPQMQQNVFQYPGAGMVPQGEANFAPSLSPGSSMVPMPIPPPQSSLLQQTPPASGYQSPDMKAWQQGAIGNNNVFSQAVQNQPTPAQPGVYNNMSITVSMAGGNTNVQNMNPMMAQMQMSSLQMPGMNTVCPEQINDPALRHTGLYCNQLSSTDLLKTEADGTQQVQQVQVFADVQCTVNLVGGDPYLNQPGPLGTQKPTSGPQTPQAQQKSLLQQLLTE
Another data set addresses Cytochrome P450 2C19 (Homo sapiens, UniProt P33261). Nature of the data set: Cytochrome panel assay with activity outcomes. Panel member name: p450-cyp2c19 Compounds with AC50 equal or less than 10 uM are considered active. Type of data set: functional. Conditions: read-out: AC50.
The target in data set [4] is Lytic switch protein BZLF1 (Epstein-Barr virus (strain B95-8) (HHV-4) (Human herpesvirus 4), UniProt P03206). Nature of the data set: EBV ZTA inhibitors, dose response, counter-screen for EBNA-1 inhibitor project, biochemical, fluorescence polarization, Epstein-Barr virus, 1536-well (AID 2377).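 Also: fluorescence polarization of Cy5-labelled ZRE DNA probe bound by purified Zta.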 Further details: species or system human gammaherpesvirus 4. (In general: The purpose of a counterscreen is to sort out artefacts and off-target activity.)
Sequence of Lytic switch protein BZLF1 (P03206 whole entry): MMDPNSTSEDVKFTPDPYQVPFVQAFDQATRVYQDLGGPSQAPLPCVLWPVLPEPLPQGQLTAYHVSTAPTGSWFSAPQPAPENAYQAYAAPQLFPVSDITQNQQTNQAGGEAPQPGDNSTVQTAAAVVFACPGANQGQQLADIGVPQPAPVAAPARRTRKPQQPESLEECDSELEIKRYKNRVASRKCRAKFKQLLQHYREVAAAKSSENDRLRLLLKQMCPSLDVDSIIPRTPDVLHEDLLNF

Data set [5] addresses Epstein-Barr nuclear antigen 1 (Epstein-Barr virus (strain B95-8) (HHV-4) (Human herpesvirus 4), UniProt P03211). The data set is described as follows: EBNA-1 inhibitors, dose response, biochemical, fluorescence polarization, 1536-well (AID 2381).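 Also: fluorescence polarization of a Cy5 DNA probe bound by EBNA-1 protein.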 Further details: species or system human gammaherpesvirus 4.
A further data set has as its system H9c2. Nature of the data set: cells. Conditions: Rattus norvegicus, H9c2, Myocardium. Type of data set: functional, cell-based.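 Also: confirmatory concentration-response retest of ultra-high-throughput screening hits for modulation of myocardial damage; cell death induced by hydrogen peroxide oxidative stress; compound pretreatment for 60 min then peroxide exposure for 2 h; potency is for protecting the cells against peroxide damage rather than for killing them.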
Data set [6] in a line: inhibitors of Bluetongue virus cytopathic effect, confirmation, arbovirus, BSR cells (AID 1250).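 Also: protection from viral cytopathic effect measured as cell viability by ATP luminescence.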 It is filed as functional.
In data set [7] the target is T1, Luciferin 4-monooxygenase (Photinus pyralis, UniProt P08659). The data set is described as follows: firefly luciferase enzyme inhibitors, dose response, biochemical, luminescence (AID 1891).
T1 sequence (P08659 whole entry): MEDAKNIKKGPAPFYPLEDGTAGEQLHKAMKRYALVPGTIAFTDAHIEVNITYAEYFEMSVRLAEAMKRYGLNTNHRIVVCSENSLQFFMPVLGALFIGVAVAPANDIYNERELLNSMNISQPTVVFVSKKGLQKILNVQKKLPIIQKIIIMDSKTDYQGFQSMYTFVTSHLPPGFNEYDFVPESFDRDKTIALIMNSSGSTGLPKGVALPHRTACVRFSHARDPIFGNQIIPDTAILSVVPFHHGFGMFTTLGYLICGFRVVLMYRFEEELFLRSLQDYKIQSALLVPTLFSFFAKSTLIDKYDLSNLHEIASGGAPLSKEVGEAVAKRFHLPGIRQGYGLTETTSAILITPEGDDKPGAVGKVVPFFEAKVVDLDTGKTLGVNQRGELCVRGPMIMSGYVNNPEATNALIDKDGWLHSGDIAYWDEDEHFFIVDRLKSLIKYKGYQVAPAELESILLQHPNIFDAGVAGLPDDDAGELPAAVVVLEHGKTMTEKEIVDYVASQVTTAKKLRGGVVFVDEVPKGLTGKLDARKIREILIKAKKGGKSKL
A short description of data set [8]: Luminescence Cell-Based Dose Confirmation HTS to Identify Inhibitors of Platelet Dense Granule Release. [Related pubchem assays: 1663 (Primary HTS), 1678 (Summary of Project)]. It is filed as functional.
The nature of data set [9]: Luminescence Cell-Based Dose Response HTS to Identify Activators of Luciferase Translation or Activity in H4 […] Cells. [Related pubchem assays: 1829 (Project Summary), 1814 (Primary HTS)]. Type of data set: functional.
A short description of data set [10]: Luminescence Cell-Based Dose Response to Identify Activators of Luciferase Translation or Activity in H4-C Neuroglioblastoma Cells. [Related pubchem assays: 1829 (Project Summary), 1814 (Primary HTS)]. It is filed as functional.
The target of data set [11] is T2, Sentrin-specific protease 6 (Homo sapiens, UniProt Q9GZR1).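 Also: Luminescence-based dose-response confirmatory assay of SENP6 inhibition, following up an ultra-high-throughput screen.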
T2 sequence (Q9GZR1 whole entry): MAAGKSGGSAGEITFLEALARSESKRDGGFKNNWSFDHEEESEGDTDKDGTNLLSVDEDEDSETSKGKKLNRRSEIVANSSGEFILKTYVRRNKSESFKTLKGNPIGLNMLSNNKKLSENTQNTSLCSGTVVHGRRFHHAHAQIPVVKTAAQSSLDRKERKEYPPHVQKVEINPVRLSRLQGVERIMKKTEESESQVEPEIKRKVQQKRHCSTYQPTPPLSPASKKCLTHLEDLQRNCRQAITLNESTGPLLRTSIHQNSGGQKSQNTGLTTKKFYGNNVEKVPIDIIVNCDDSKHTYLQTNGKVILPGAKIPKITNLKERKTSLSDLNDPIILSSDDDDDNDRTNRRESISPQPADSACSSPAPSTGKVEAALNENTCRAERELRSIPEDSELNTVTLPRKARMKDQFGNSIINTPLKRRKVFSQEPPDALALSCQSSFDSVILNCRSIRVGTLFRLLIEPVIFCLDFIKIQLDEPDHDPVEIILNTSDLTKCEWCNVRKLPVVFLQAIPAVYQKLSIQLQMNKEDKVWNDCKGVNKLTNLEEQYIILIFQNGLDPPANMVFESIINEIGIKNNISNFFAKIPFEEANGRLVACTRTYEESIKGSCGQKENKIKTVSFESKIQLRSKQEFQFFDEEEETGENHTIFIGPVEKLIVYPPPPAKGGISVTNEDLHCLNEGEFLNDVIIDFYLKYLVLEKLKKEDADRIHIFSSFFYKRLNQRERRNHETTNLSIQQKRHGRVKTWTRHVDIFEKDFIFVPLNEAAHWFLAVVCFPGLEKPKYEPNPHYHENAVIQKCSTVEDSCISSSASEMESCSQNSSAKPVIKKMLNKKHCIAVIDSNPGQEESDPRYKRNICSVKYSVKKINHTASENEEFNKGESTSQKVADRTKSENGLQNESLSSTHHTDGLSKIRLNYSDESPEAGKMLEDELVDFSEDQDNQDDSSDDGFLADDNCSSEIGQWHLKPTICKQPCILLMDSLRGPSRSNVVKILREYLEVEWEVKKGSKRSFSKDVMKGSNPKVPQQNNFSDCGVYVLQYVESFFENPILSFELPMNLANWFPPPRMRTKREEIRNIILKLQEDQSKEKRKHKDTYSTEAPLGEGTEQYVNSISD
Type of data set: functional.

The target in data set [12] is T3, Sentrin-specific protease 8 (Homo sapiens, UniProt Q96LD8).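 Also: luminescence read-out of SENP8 inhibition, dose-response confirmation following an ultra-high-throughput screen.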
T3 sequence (Q96LD8 whole entry): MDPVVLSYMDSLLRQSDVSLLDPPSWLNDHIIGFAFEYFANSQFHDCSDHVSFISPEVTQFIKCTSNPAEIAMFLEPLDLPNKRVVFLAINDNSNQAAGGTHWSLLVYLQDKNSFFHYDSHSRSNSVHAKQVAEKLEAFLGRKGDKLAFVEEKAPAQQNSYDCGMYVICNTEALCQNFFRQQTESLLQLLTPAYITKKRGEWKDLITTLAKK
It is filed as functional.

Data set [13] in a line: Luminescence Cell-Based Dose Confirmation to Identify Activators of 5'UTR Stem-Loop Driven Alpha-Synuclein mRNA Translation in H4 Neuroglioblastoma Cells. [Related pubchem assays: 1829 (Project Summary), 1814 (Primary HTS)]. Type of data set: functional.
The next data set concerns the target T4, Caspase-3 (Homo sapiens, UniProt P42574).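 Also: Dose-response selectivity test against caspase-3 for candidate inhibitors of sentrin-specific proteases (SENPs).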
T4 sequence (P42574 whole entry): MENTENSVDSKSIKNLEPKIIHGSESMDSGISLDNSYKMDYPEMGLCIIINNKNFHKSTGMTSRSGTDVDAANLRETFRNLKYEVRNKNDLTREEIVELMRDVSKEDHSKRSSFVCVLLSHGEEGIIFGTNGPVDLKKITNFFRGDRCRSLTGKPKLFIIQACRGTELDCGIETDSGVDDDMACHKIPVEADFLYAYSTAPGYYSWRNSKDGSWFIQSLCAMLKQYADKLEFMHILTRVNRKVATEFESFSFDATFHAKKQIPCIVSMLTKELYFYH
Type of data set: functional.

Another data set relates to H4. The data set is described as follows: Luminescence Cell-Based Dose Response HTS to Identify Activators of 5'UTR Stem-Loop Driven Prion Protein mRNA Translation in H4 Neuroglioblastoma Cells. [Related pubchem assays: 1829 (Project Summary), 1814 (Primary HTS)]. Type of data set: functional. Conditions: Homo sapiens.
Data set [14] concerns the target T5, Sentrin-specific protease 7 (Homo sapiens, UniProt Q9BQF6).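 Also: Luminescence-based dose-response confirmation of ultra-high-throughput screening hits, measuring inhibition of SENP7.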
T5 sequence (Q9BQF6 whole entry): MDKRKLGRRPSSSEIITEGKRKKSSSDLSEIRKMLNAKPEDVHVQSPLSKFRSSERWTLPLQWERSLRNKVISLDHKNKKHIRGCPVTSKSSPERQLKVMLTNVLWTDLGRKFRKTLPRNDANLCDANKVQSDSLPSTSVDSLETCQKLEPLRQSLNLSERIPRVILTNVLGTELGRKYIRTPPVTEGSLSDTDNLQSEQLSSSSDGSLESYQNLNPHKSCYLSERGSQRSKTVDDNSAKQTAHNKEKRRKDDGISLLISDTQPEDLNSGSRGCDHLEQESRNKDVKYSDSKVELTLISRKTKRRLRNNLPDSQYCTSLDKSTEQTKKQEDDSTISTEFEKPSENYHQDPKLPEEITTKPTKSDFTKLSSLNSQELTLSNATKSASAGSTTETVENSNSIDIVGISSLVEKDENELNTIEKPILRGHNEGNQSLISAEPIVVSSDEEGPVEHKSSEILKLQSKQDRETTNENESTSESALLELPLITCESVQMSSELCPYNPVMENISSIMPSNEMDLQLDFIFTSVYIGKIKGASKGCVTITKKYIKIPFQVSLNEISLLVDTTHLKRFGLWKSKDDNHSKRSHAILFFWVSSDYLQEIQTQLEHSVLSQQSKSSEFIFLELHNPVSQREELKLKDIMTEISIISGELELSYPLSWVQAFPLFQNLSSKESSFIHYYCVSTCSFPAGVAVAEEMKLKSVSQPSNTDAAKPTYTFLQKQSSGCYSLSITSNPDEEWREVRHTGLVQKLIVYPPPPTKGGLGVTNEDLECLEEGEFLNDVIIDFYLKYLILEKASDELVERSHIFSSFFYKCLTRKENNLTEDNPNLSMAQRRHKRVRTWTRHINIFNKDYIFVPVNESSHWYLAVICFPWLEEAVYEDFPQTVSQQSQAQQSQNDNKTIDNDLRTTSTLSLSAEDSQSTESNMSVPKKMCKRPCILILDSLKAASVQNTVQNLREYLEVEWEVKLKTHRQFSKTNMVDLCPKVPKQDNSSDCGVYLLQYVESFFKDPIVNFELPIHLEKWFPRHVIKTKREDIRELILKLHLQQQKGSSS
Type of data set: functional.

A short description of data set [15]: Luminescence Cell-Based Dose Response to Identify Activators of 5'UTR Stem-Loop Driven Prion Protein mRNA Translation in H4-C Neuroglioblastoma Cells. [Related pubchem assays: 1829 (Project Summary), 1814 (Primary HTS)]. It is filed as functional.
In the next data set the target is Cytochrome P450 3A4 (Homo sapiens, UniProt P08684).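 Also: CYP3A4 tested as one member of a cytochrome P450 panel screen.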
For data set [16], the target named is T6, Bcl-2-related protein A1 (Mus musculus, UniProt Q07440).
T6 sequence (Q07440 whole entry): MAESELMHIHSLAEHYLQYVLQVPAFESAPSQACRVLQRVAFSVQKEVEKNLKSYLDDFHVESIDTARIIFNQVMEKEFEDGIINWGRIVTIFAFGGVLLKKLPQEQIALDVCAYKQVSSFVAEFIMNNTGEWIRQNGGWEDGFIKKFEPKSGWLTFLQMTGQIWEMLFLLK
Nature of the data set: Bfl-1 inhibitors blocking BH3 peptide binding, confirmation, biochemical, TR-FRET, mouse Bfl-1 (AID 621).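 Also: TR-FRET binding of GST-Bfl-1 to FITC-labelled Bid peptide via terbium antibody.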

The target of data set [17] is T6, Bcl-2-related protein A1. Nature of the data set: Bfl-1 binding inhibitors, SAR follow-up, biochemical, fluorescence polarization (AID 1070). (In fluorescence polarisation assays a small probe gives low polarisation when free and higher when bound to something large.)
Data set [18] has as its target Glyceraldehyde-3-phosphate dehydrogenase (Homo sapiens, UniProt P04406).
Data set [19] has as its target T1, Luciferin 4-monooxygenase. The data set is described as follows: Counter Screen for Luciferase-based Assay Positives. [Related pubchem assays: 620, 618, 411 ].
The test system of a further data set is HT-1080. Nature of the data set: cytotoxicity in HT1080 fibrosarcoma cells, cell-based, fluorescence readout (AID 620). Type of data set: functional. Conditions: Homo sapiens.

Sequence of Glyceraldehyde-3-phosphate dehydrogenase (P04406 whole entry): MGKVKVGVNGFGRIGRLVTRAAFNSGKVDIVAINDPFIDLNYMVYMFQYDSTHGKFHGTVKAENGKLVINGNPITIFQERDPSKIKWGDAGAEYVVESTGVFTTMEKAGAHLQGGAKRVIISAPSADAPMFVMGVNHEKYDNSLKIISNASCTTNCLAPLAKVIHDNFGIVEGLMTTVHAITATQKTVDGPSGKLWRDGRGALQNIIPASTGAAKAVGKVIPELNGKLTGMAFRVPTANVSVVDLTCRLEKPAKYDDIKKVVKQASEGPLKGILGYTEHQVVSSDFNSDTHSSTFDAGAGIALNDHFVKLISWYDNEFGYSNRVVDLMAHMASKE

One may read the EC50 as the concentration needed to bring the measured effect to its halfway point. In general, AC50 refers to the midpoint of the concentration-response curve, whichever way the signal moves. Take `O=C(CC1CCCC1)Nc1ccc2c(c1)CCC2`: the EC50 in [1], in data set [2] and in [3] was > 79.4 µM (not active) throughout. The AC50 on Cytochrome P450 2C19 was 7.08 µM (inconclusive).

Broadly, the IC50 is the point on the concentration scale where inhibition reaches its midpoint. With `COc1ccc(N/C=C2/C(=O)N(c3ccc(OC)cc3)C(=O)c3ccccc32)cc1`, the IC50 is > 111 µM (not active) in [4] and 8.99 µM (active) in data set [5].

As to `COc1ccc(-c2nnc(-c3cc(OC)c(OC)c(OC)c3)o2)cc1OC`, the IC50 in the data set on H9c2 is 12.5 µM (active); in data set [6] it was 27.5 µM (active). In addition, the EC50 in data set [7] and in data set [8] was > 112 µM (not active) throughout.

For `O=C(Nc1cccc(F)c1)Nc1ccc2c(c1)CCC2`, the EC50 was < 0.1 µM (active) in data set [9]; 0.463 µM (active) in [10]; 10.7 µM (active) in data set [13]; > 120 µM (not active) with H4; 0.63 µM (active) in data set [15]. Further, the IC50 was > 100 µM (inactive) in data set [11], > 100 µM (inactive) in [12], 57.8 µM (active) at Caspase-3 and 2.85 µM (active) in [14].

`Cc1ccccc1OCC(=O)Nc1sc(C(=O)Nc2cccc(C)c2C)c(C)c1C#N`: the EC50 in [1] is recorded as 36.5 µM (not active); in data set [2] it was < 79.4 µM (not active); in [3], 52.4 µM (not active). Besides, at Cytochrome P450 3A4, the AC50 result is “inconclusive”.

Turning to `CCOc1ccccc1N1CCN(C2=C(Cl)C(=O)N(c3ccc(Cl)c(Cl)c3)C2=O)CC1`, the IC50 (on Bcl-2-related protein A1 [16]; on Bcl-2-related protein A1 [17]; in [18]) was > 100 µM (not active) in each case.

In the case of `COc1ccc2nc(O)c(-c3nnn(-c4ccc(C)cc4)n3)cc2c1`, the IC50 at Bcl-2-related protein A1 [16] and on Bcl-2-related protein A1 [17] was > 100 µM (not active) throughout.

Regarding `c1ccc(-c2ccc(-c3ccccn3)nn2)nc1`, the EC50 was > 100 µM (not active) in [19] and > 50 µM (not active) with HT-1080.

In the case of `COc1cc(OC)c(/C=C2\SC(=O)N(CC(=O)Nc3ccccc3F)C2=O)c(OC)c1`, the half-inhibitory concentration (IC50) in [4] is > 111 µM (not active); in data set [5] it was 1.98 µM (active).
